pEC50: −log10 of the molar value.

What all share (format): cell-based
Experiment [1] concerns Wnt activity (Sp5-Luc reporter, SW480 colon carcinoma cells). Nature of the experiment: Wnt activity screening assay: Sp5-Luc reporter gene in SW480 colon carcinoma cells. The settings on record: Homo sapiens, overnight incubation, 10-point curve from 10 μM. In short, it runs like this:
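Wnt-driven firefly luciferase in SW480 colon carcinoma cells reports pathway activity after overnight compound exposure (10 μM top concentration, 3-fold steps). Signal is normalized to DMSO controls.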

A further experiment has as its system IL-6 (THP-1 cells). As to the kind of experiment: IL-6 inhibition in LPS-stimulated THP-1 human monocyte cells (HTRF). The settings on record: LPS 500 ng/mL, 22 hours, IL6 HTRF. In short, it runs like this:
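THP-1 cells, serum-reduced (1% FBS) for 24 h, were preincubated with compound (10-point 1:3 series from 10 μM, 0.1% DMSO) for 2 h, then stimulated with 500 ng/mL LPS for 22 h at 37° C. IL-6 was read by HTRF (665/620 nm ratio) and normalized to DMSO. EC50 from four-parameter fit; % inhibition at 10 μM given if EC50 >10 μM.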
A general note: In TR-FRET formats the signal depends on donor and acceptor labels being close together.

For experiment [2], the system named is primary human mesenchymal stem cells (hMSCs). Nature of the experiment: Induction of chondrogenesis in primary human mesenchymal stem cells (hMSCs), nodule count. The settings on record: 144 h, 6 days; for EC50: concentration required to induce 50% levels of chondrogenesis of TGF-β3 control, read-out: Conc (nM) of 50% TGF-β3 activity; for Emax: relative to TGF-β3 (10 ng/mL) positive control, read-out: Max. Activity as % TGF-β3 activity. As to the method: Representative compounds were screened using primary human mesenchymal stem cells (hMSCs) to determine their ability to induce chondrogenesis (process by which cartilage is developed).
Primary human mesenchymal stem cells (hMSCs) were purchased from Lonza (Walkersville, Md.) and expanded in Mesenchymal Stem Cell Growth Media (Lonza). Cells between passage 3 and 6 were used for the experiments.
Each compound was dissolved in DMSO as a 10 mM stock and used to prepare compound source plates. Serial dilution (1:3, 6-point dose-response curves from 2700 nM to 10 nM) and compound transfer was performed using the ECHO 550 (Labcyte, Sunnyvale, Calif.) into 96-well clear bottom assay plates (Greiner Bio-One) with appropriate DMSO backfill for a final DMSO concentration of 0.03%. hMSCs were plated at 20,000 cells/well in 250 μL/well Incomplete Chondrogenic Induction Medium (Lonza; DMEM, dexamethasone, ascorbate, insulin-transferrin-selenium [ITS supplement], gentamycin-amphotericin [GA-1000], sodium pyruvate, proline and L-glutamine). TGF-β3 (10 ng/mL) was used as a positive control for differentiation while negative control wells were treated with 75 nL DMSO for normalization and calculating EC50 values. Cells were incubated at 37° C. and 5% CO2 for 6 days. To image chondrogenic nodules, the cells were fixed using 4% formaldehyde (Electron Microscopy Sciences), and stained with 2 μg/mL Rhodamine B (Sigma-Aldrich) and 20 μM Nile Red (Sigma-Aldrich) [Johnson K., et. al, A Stem Cell-Based Approach to Cartilage Repair, Science, (2012). 336(6082), 717-721]. The nodules imaged (4 images per well at 4× magnification) by excitation at 531 nm and emission at 625 nm and quantified using the CellInsight CX5 (Thermo Scientific). Number of nodules in each well was normalized to the average of 3 DMSO treated wells on the same plate using Excel (Microsoft Inc.). The normalized averages (fold change over DMSO) of 3 replicate wells for each compound concentration were calculated. Due to solubility limitations of some of the compounds, curve fitting was incomplete leading to inaccurate EC50 determinations.
Using TGF-β3 as a positive control, the concentration of representative compounds required to induce 50% levels of chondrogenesis is reported. In addition, the maximum activity of each compound and the respective dose that each compound reached maximum chondrogenesis activity is reported.

`Nc1cncc(-c2ccc3[nH]nc(-c4cc5c(-c6ccncc6)cccc5[nH]4)c3n2)c1` [Compound 115, 5-(3-(4-(Pyridin-4-yl)-1H-indol-2-yl)-1H-pyrazolo[4,3-b]pyridin-5-yl) pyridin-3-amine] had a pEC50 in experiment [1] of 7.17. This compound also showed a pEC50 with IL-6 (THP-1 cells) of 7.28. In addition, in experiment [2], the EC50 came out at 900 nM and the Emax was 165%.
Consider `Cc1ccncc1-c1ccc2[nH]nc(-c3cc4c(-c5cc(F)cc(CNS(C)(=O)=O)c5)cccc4[nH]3)c2n1` [Compound 481, N-(3-Fluoro-5-(2-(5-(4-methylpyridin-3-yl)-1H-pyrazolo[4,3-b]pyridin-3-yl)-1H-indol-4-yl)benzyl)methanesulfonamide], for which the negative-log EC50 (pEC50) in experiment [1] is 6.79. In the experiment with IL-6 (THP-1 cells), this compound gave a negative-log EC50 (pEC50) of 7.00. Besides, in experiment [2], the EC50 turned out to be 900 nM and the Emax was found to be 143%.

Broadly, the pEC50 is −log10 of the EC50, conventionally taken in molar units.

(Values after patent US10226453B2, “3-(1H-indol-2-yl)-1H-pyrazolo[4,3-B]pyridines and therapeutic uses thereof” (Samumed, LLC, priority 2015, dated 2019).)
